Source: US20240148821A1, “PHARMACEUTICAL USE OF CYCLIC PEPTIDE COMPOUND” (CHUGAI SEIYAKU KABUSHIKI KAISHA, priority 2021, published 2024)
Bridge positions count the residues as written; N and C are the ends. Square brackets hold non-standard residues; d marks the D form. Peptide text beside a SMILES is read from it. * marks the point of attachment. hPhe(3-Cl-4-CF3) = N[C@@H](CCc1ccc(C(F)(F)F)c(Cl)c1)C(=O)O; hPhe(3-F,4-CF3) = N[C@@H](CCc1ccc(C(F)(F)F)c(F)c1)C(=O)O; NMePhe(4-CF3) = CN[C@@H](Cc1ccc(C(F)(F)F)cc1)C(=O)O; NMeAbu(4,4,4-F3) = CN[C@@H](CC(F)(F)F)C(=O)O; NMePhe(4-Cl) = CN[C@@H](Cc1ccc(Cl)cc1)C(=O)O; NMePhe(2-OMe) = CN[C@@H](Cc1ccccc1OC)C(=O)O; NMePhe(4-Me) = CN[C@@H](Cc1ccc(C)cc1)C(=O)O; NMePhe(3-F) = CN[C@@H](Cc1cccc(F)c1)C(=O)O; NMeMet(O2) = CN[C@@H](CCS(C)(=O)=O)C(=O)O; Phe(3-I) = N[C@@H](Cc1cccc(I)c1)C(=O)O; NMeAla(cPr) = CN[C@@H](CC1CC1)C(=O)O; NMeCha = CN[C@@H](CC1CCCCC1)C(=O)O; NMeChg = CN[C@H](C(=O)O)C1CCCCC1; hPhe = N[C@@H](CCc1ccccc1)C(=O)O; N(CH2CH2)2CF2 = FC1(F)CCN(*)CC1; NMeD = CN[C@@H](CC(=O)O)C(=O)O; NMeL = CN[C@@H](CC(C)C)C(=O)O; NMeV = CN[C@H](C(=O)O)C(C)C; d(β3hA) = C[C@@H](N)CC(=O)O; Ac6c = NC1(C(=O)O)CCCCC1; NMeA = CN[C@@H](C)C(=O)O; NMeAib = CNC(C)(C)C(=O)O; Nle = CCCC[C@H](N)C(=O)O; Piperidide = C1CCN(*)CC1; Pyrrolidide = C1CCN(*)C1; Ac5c = NC1(C(=O)O)CCCC1; Aze = O=C(O)[C@@H]1CCN1; Ac4c = NC1(C(=O)O)CCC1; βAla = NCCC(=O)O; Sar = CNCC(=O)O

system: Human pancreatic cancer cell line AsPC-1 (G12D mutation Kras); test: AsPC-1 cell growth inhibition (AsPC-1 CGI); type: cell-based; conditions: read-out: AsPC-1 cell growth inhibition, 50% growth inhibitory concentration (IC50 value); 96 hours, CellTiter-Glo, values classified in ranges
Protocol: Test compounds were serially dilated with dimethyl sulfoxide, and 200 nL was then dispensed to a U-bottom 96-well plate using Labcyte Echo. […] The cell suspension was dispensed to a. plate containing a test compound at 100 μL per well and incubated at 37° C. in a 5% carbon dioxide gas incubator. 96 hours later, 80 μL of CellTiter-Glo (Promega) was added to each well and fluorescence was measured.

`CC[C@H](C)[C@@H]1NC(=O)[C@H](CC(C)C)N(C)C(=O)C[C@@H](C)NC(=O)[C@H](CC(C)C)N(C)C(=O)C2(CCCCC2)NC(=O)[C@@H]2CCCN2C(=O)[C@H](CCc2ccc(C(F)(F)F)c(F)c2)NC(=O)CN(C)C(=O)[C@H](CC2CCCCC2)N(C)C(=O)CN(C)C(=O)CN(C)C1=O` [Compound 231] (cyclo([Ac6c][NMeL][d(β3hA)][NMeL]I[Sar][Sar][NMeCha][Sar][hPhe(3-F,4-CF3)]P)) and `CC[C@H](C)[C@@H]1NC(=O)[C@H](CC2CC2)N(C)C(=O)C[C@@H](C)NC(=O)[C@H](C(C)C)N(C)C(=O)C2(CCCC2)NC(=O)[C@@H]2CCCN2C(=O)[C@H](CCc2ccc(C(F)(F)F)c(Cl)c2)NC(=O)CN(C)C(=O)[C@H](CC2CCCCC2)N(C)C(=O)CN(C)C(=O)CN(C)C1=O` [Compound 248] (cyclo([Ac5c][NMeV][d(β3hA)][NMeAla(cPr)]I[Sar][Sar][NMeCha][Sar][hPhe(3-Cl-4-CF3)]P)) cannot be ordered by IC50: greater than 500 nM for the first, greater than 500 nM for the second.

`CCCC[C@@H]1NC(=O)[C@H](Cc2cccc(I)c2)NC(=O)CN(C)C(=O)[C@H](Cc2ccc(C)cc2)N(C)C(=O)CN(C)C(=O)CN(C)C(=O)[C@H]([C@@H](C)CC)NC(=O)[C@H](CC(C)C)N(C)C(=O)C[C@@H](C(=O)N2CCCCC2)N(C)C(=O)[C@H](CC(C)C)NC(=O)[C@H](C)N(C)C1=O` [Compound 232] ([NMeL]I[Sar][Sar][NMePhe(4-Me)][Sar][Phe(3-I)][Nle][NMeA]L[NMeD]-Piperidide; lactam N-11) and `CCCC[C@@H]1NC(=O)[C@H](Cc2cccc(I)c2)NC(=O)CN(C)C(=O)[C@H](Cc2ccc(Cl)cc2)N(C)C(=O)CN(C)C(=O)CN(C)C(=O)[C@H]([C@@H](C)CC)NC(=O)[C@H](CC(C)C)N(C)C(=O)C[C@@H](C(=O)N2CCCCC2)N(C)C(=O)[C@H](CC(C)C)NC(=O)[C@H](Cc2ccccc2OC)N(C)C1=O` [Compound 259] ([NMeL]I[Sar][Sar][NMePhe(4-Cl)][Sar][Phe(3-I)][Nle][NMePhe(2-OMe)]L[NMeD]-Piperidide; lactam N-11) cannot be ordered by IC50: greater than 500 nM for the first, greater than 500 nM for the second.

`CC[C@H](C)[C@@H]1NC(=O)[C@H](CC(C)C)N(C)C(=O)C[C@@H](C(=O)N2CCCCC2)N(C)C(=O)[C@H](C(C)C)N(C)C(=O)C2(CCCC2)NC(=O)[C@@H]2CCCN2C(=O)[C@H](CCc2ccc(C(F)(F)F)c(Cl)c2)NC(=O)CN(C)C(=O)[C@H](CCS(C)(=O)=O)N(C)C(=O)[C@@H]2CCN2C(=O)[C@H](C)N(C)C1=O` [Compound 235] ([NMeL]I[NMeA][Aze][NMeMet(O2)][Sar][hPhe(3-Cl-4-CF3)]P[Ac5c][NMeV][NMeD]-Piperidide; lactam N-11) and `CC[C@H](C)[C@@H]1NC(=O)[C@H](CC(C)C)N(C)C(=O)C[C@@H](C(=O)N2CCCCC2)N(C)C(=O)[C@H](C(C)C)N(C)C(=O)C2(CCC2)NC(=O)[C@H](CC(=O)N2CCC(F)(F)CC2)N(C)C(=O)[C@H](CCc2ccc(C(F)(F)F)c(Cl)c2)NC(=O)CN(C)C(=O)[C@H](CC2CCCCC2)N(C)C(=O)CN(C)C(=O)CN(C)C1=O` [Compound 251] ([NMeL]I[Sar][Sar][NMeCha][Sar][hPhe(3-Cl-4-CF3)][NMeD](N(CH2CH2)2CF2)[Ac4c][NMeV][NMeD]-Piperidide; lactam N-11) cannot be ordered by IC50: greater than 500 nM for the first, greater than 500 nM for the second.

First: CC[C@H](C)[C@@H]1NC(=O)CCNC(=O)[C@H](Cc2cccc(F)c2)N(C)C(=O)[C@H](C2CCCCC2)N(C)C(=O)C2(CCCC2)NC(=O)[C@@H]2CCCN2C(=O)[C@H](CCc2ccc(C(F)(F)F)c(Cl)c2)NC(=O)CN(C)C(=O)[C@H](CC2CCCCC2)N(C)C(=O)CN(C)C(=O)CN(C)C1=O [Compound 237] (cyclo([Ac5c][NMeChg][NMePhe(3-F)][βAla]I[Sar][Sar][NMeCha][Sar][hPhe(3-Cl-4-CF3)]P))
Second: CC[C@H](C)[C@@H]1NC(=O)[C@H](CC(F)(F)F)N(C)C(=O)C[C@@H](C(=O)N2CCCC2)N(C)C(=O)[C@H](C2CCCCC2)N(C)C(=O)C2(CCCC2)NC(=O)[C@@H]2CCCN2C(=O)[C@H](CCc2ccc(C(F)(F)F)c(Cl)c2)NC(=O)CN(C)C(=O)[C@H](Cc2ccc(C(F)(F)F)cc2)N(C)C(=O)CN(C)C(=O)CN(C)C1=O [Compound 245] ([NMeAbu(4,4,4-F3)]I[Sar][Sar][NMePhe(4-CF3)][Sar][hPhe(3-Cl-4-CF3)]P[Ac5c][NMeChg][NMeD]-Pyrrolidide; lactam N-11)
The IC50 of the first is higher: greater than 500 nM for the first, no more than 20 nM for the second.

`CC[C@H](C)[C@@H]1NC(=O)[C@H](CC(C)C)N(C)C(=O)C[C@@H](C(=O)N2CCCCC2)N(C)C(=O)[C@H](CC(C)C)NC(=O)C(C)(C)N(C)C(=O)[C@H](Cc2ccc(OC)cc2)NC(=O)[C@H](Cc2cccc(I)c2)NC(=O)CN(C)C(=O)[C@H](Cc2ccc(C)cc2)N(C)C(=O)CN(C)C(=O)CN(C)C1=O` [Compound 247] ([NMeL]I[Sar][Sar][NMePhe(4-Me)][Sar][Phe(3-I)]Y(Me)[NMeAib]L[NMeD]-Piperidide; lactam N-11) and `CC[C@H](C)[C@@H]1NC(=O)[C@H](CC(C)C)N(C)C(=O)C[C@@H](C(=O)N2CCCCC2)N(C)C(=O)[C@H](C(C)C)N(C)C(=O)C2(CCCC2)NC(=O)[C@@H]2CCCN2C(=O)[C@H](CCc2ccccc2)NC(=O)CN(C)C(=O)[C@H](CC2CCCCC2)N(C)C(=O)CN(C)C(=O)CN(C)C1=O` [Compound 265] ([NMeL]I[Sar][Sar][NMeCha][Sar][hPhe]P[Ac5c][NMeV][NMeD]-Piperidide; lactam N-11) cannot be ordered by IC50: greater than 500 nM for the first, greater than 500 nM for the second.
